{"source": "patent US20050042178A1", "about": "“Microparticles containing the CGRP-antagonist 1-[N2-[3,5-dibrom-N-[[4-(3,4-dihydro-2(1H)-oxoquinazoline-3-yl)-1-piperidinyl]carbonyl]-D-tyrosyl]-L-lysyl]-4-(4-pyridinyl)-piperazine, process for preparing and the use thereof as inhalation powder” (Boehringer Ingelheim International GmbH, priority 2003, published 2005)", "origin": "cited, not measured here", "conditions": "conventional formulations"}
{"smiles": "NCCCC[C@H](NC(=O)[C@@H](Cc1cc(Br)c(O)c(Br)c1)NC(=O)N1CCC(N2Cc3ccccc3NC2=O)CC1)C(=O)N1CCN(c2ccncc2)CC1", "note": "[A, 1-[N^2-[3,5-dibromo-N-[[4-(3,4-dihydro-2(1H)-oxoquinazolin-3-yl)-1-piperidinyl]carbonyl]-D-tyrosyl]-L-lysyl]-4-(4-pyridinyl)-piperazine]", "values": [{"measurement": "oral bioavailability", "value": "very limited"}]}
